For series [1], the target named is recombinant genotype D HBV RNaseH (Hepatitis B virus genotype D subtype ayw, UniProt P03156). Briefly: Oligonucleotide-directed RNA cleavage assay, HBV genotype D RNaseH. It counts as biochemical. Particulars: for activity against the HBV RNaseH (in words): genotype D and C enzymes, up to 60 µM.
A further series deals with genotype C HBV RNaseH (Hepatitis B virus, UniProt P12933). Briefly: Oligonucleotide-directed RNA cleavage assay, HBV genotype C RNaseH. It counts as biochemical. The conditions noted are these: read-out: Genotype C IC50; average ± SD, three or four independent assays.
Sequence of genotype C HBV RNaseH (P12933 682-843): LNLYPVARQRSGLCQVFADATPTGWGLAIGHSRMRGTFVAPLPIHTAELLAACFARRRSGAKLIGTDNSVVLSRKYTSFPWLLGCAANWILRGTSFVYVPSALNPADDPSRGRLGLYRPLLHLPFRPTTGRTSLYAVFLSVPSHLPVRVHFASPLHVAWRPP
The next series has as its target E. coli RNaseH (Escherichia coli, UniProt P0A7Y4). Briefly: Oligonucleotide-directed cleavage assay with E. coli RNaseH. The conditions noted are these: identical conditions to the HBV RNaseH assay. Type of series: biochemical.
For series [2], the system named is HBV genotype D replication in HepDES19 cells. Briefly: HBV replication assay in HepDES19 cells. Type of series: cell-based, Hepatitis B virus. Particulars: same samples as the EC50 assay.
In the next series the test system is HepDES19 cells. In words: MTT cytotoxicity assay. Type of series: cell-based, human. Particulars: read-out: Cytotoxicity CC50, MTT, 3 days treatment.
Another series deals with HBV replication. Particulars: read-out: EC50 against HBV replication; ref Hu et al., 2013; cited from earlier work.
A further series deals with HIV RNaseH. The conditions noted are these: read-out: IC50 against the HIV RNaseH; ref Billamboz et al., 2011b; cited from earlier work.

The values below come from paper PMC4101055 (Antiviral research, 2014).

The structures appear in SMILES notation. “Also recorded” adds a separate entry of the source.

Sequence of recombinant genotype D HBV RNaseH (P03156 671-832): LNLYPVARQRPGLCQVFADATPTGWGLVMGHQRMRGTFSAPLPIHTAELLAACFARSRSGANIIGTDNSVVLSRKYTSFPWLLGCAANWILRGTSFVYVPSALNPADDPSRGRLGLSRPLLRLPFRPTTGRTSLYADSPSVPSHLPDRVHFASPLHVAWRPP
Sequence of E. coli RNaseH (P0A7Y4 whole entry): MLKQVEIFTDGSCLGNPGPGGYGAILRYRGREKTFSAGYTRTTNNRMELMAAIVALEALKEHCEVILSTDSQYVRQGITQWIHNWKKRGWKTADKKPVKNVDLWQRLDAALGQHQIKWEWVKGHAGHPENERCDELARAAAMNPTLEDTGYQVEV

One may read the IC50 as the concentration at which inhibition is half-maximal. What is called CC50 is the concentration giving 50% cytotoxicity. Consider `O=C1Cc2ccccc2C(=O)N1O` [Compound 1, 2-hydroxyisoquinoline-1,3(2H,4H)-dione], for which the concentration for half-maximal inhibition (IC50) in series [1] amounted to 28.1 ± 9.7 µM; at genotype C HBV RNaseH, 30.4 ± 12.9 µM. For the same compound, the “Effect on E. coli RNaseH activity” value at E. coli RNaseH was “not affected; also recorded: inactive”. Further, the “Accumulation of minus-polarity HBV DNA strand” value in series [2] is “not suppressed”. Moreover, the CC50 in the series with HepDES19 cells turned out to be 74.7 ± 24 µM.
By EC50 is commonly meant the concentration needed to bring the measured effect to its halfway point. In the case of `CC(C)c1ccc(O)c(=O)c(O)c1` [Compound 46, β-thujaplicinol], in the series with HBV replication, the EC50 was around 5 µM.
`COC(=O)C1C(=O)N(O)C(=O)c2ccccc21` (stereo not shown) [Compound 81, 2-hydroxy-4-methoxycarbonylisoquinoline-1,3(2H,4H)-dione]: the “activity against the HBV RNaseH (in words)” value (shortened to “activity … (in words)”) in series [1] is listed as “negligible activity”. For the same compound, the IC50 in the series with HIV RNaseH was 61 nM.
Regarding `O=C1c2ccccc2C(=O)N1O` [Compound 138], the “activity … (in words)” value in series [1] is on record as “inactivity”.
Turning to `O=C1CCC(=O)N1O` [Compound 139], the “activity … (in words)” value in series [1] is “inactivity”.
